Reference: PubChem BioAssay (NCI)
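The compound was tested at five concentrations on cells cultured in 96-well plates, with a 48-hour exposure period. The concentration for 50% growth inhibition is given as GI50. The concentration for full growth arrest is given as TGI.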

Tests used:
Assay in all cases: NCI anticancer screen, dose series, 48 h
786-0 renal = tested on: 786-0 renal
A498 renal = tested on: A498 renal
A549 NSCLC = tested on: A549 NSCLC
ACHN renal = tested on: ACHN renal
BT-549 breast = tested on: BT-549 breast
CAKI-1 renal = tested on: CAKI-1 renal
CCRF-CEM leukemia = tested on: CCRF-CEM leukemia
COLO 205 colon = tested on: COLO 205 colon
DU-145 prostate = tested on: DU-145 prostate
EKVX NSCLC = tested on: EKVX NSCLC
HCC-2998 colon = tested on: HCC-2998 colon
HCT-116 colon = tested on: HCT-116 colon
HCT-15 colon = tested on: HCT-15 colon
HL-60(TB) leukemia = tested on: HL-60(TB) leukemia
HOP-62 NSCLC = tested on: HOP-62 NSCLC
HOP-92 NSCLC = tested on: HOP-92 NSCLC
HS 578T breast = tested on: HS 578T breast
HT29 colon = tested on: HT29 colon
IGROV1 ovarian = tested on: IGROV1 ovarian
K-562 leukemia = tested on: K-562 leukemia
KM12 colon = tested on: KM12 colon
LOX IMVI melanoma = tested on: LOX IMVI melanoma
M14 melanoma = tested on: M14 melanoma
MALME-3M melanoma = tested on: MALME-3M melanoma
MCF7 breast = tested on: MCF7 breast
MDA-MB-231 breast = tested on: MDA-MB-231 breast
MDA-MB-435 = tested on: MDA-MB-435
MOLT-4 leukemia = tested on: MOLT-4 leukemia
NCI-H226 lung = tested on: NCI-H226 lung
NCI-H23 lung = tested on: NCI-H23 lung
NCI-H460 lung = tested on: NCI-H460 lung
NCI-H522 lung = tested on: NCI-H522 lung
NCI/ADR-RES ovarian = tested on: NCI/ADR-RES ovarian
OVCAR-3 ovarian = tested on: OVCAR-3 ovarian
OVCAR-4 ovarian = tested on: OVCAR-4 ovarian
OVCAR-5 ovarian = tested on: OVCAR-5 ovarian
OVCAR-8 ovarian = tested on: OVCAR-8 ovarian
PC-3 prostate = tested on: PC-3 prostate
RPMI-8226 leukemia = tested on: RPMI-8226 leukemia
RXF 393 renal = tested on: RXF 393 renal
SF-268 CNS = tested on: SF-268 CNS
SF-295 CNS = tested on: SF-295 CNS
SF-539 CNS = tested on: SF-539 CNS
SK-MEL-2 melanoma = tested on: SK-MEL-2 melanoma
SK-MEL-28 melanoma = tested on: SK-MEL-28 melanoma
SK-MEL-5 melanoma = tested on: SK-MEL-5 melanoma
SK-OV-3 ovarian = tested on: SK-OV-3 ovarian
SN12C renal = tested on: SN12C renal
SNB-19 CNS = tested on: SNB-19 CNS
SNB-75 CNS = tested on: SNB-75 CNS
SR leukemia = tested on: SR leukemia
SW-620 colon = tested on: SW-620 colon
T-47D breast = tested on: T-47D breast
TK-10 renal = tested on: TK-10 renal
U251 CNS = tested on: U251 CNS
UACC-257 melanoma = tested on: UACC-257 melanoma
UACC-62 melanoma = tested on: UACC-62 melanoma
UO-31 renal = tested on: UO-31 renal

Structure (SMILES): COc1ccc(C2C(C#N)=C(/N=C/c3ccc(Cl)cc3)Oc3c2sc2c(C)cccc32)cc1 (stereo unspecified)
- GI50 (786-0 renal): 4.34 µM
- TGI (786-0 renal): 28.2 µM
- GI50 (A498 renal): 12.6 µM
- TGI (A498 renal): 27.5 µM
- GI50 (A549 NSCLC): 2.22 µM
- TGI (A549 NSCLC): 28.9 µM
- GI50 (ACHN renal): 3.94 µM
- TGI (ACHN renal): 17.8 µM
- GI50 (BT-549 breast): 1.21 µM
- TGI (BT-549 breast): 18.8 µM
- GI50 (CAKI-1 renal): 4.03 µM
- TGI (CAKI-1 renal): 22.3 µM
- GI50 (CCRF-CEM leukemia): 3.01 µM
- TGI (CCRF-CEM leukemia): > 100 µM
- GI50 (COLO 205 colon): 2.59 µM
- TGI (COLO 205 colon): 6.96 µM
- GI50 (DU-145 prostate): 3.2 µM
- TGI (DU-145 prostate): 14 µM
- GI50 (EKVX NSCLC): 3.87 µM
- TGI (EKVX NSCLC): 17.3 µM
- GI50 (HCC-2998 colon): 1.91 µM
- TGI (HCC-2998 colon): 5.99 µM
- GI50 (HCT-116 colon): 1.55 µM
- TGI (HCT-116 colon): 13.4 µM
- GI50 (HCT-15 colon): 0.731 µM
- TGI (HCT-15 colon): 10.5 µM
- GI50 (HL-60(TB) leukemia): 0.433 µM
- TGI (HL-60(TB) leukemia): 2.94 µM
- GI50 (HOP-62 NSCLC): 4.07 µM
- TGI (HOP-62 NSCLC): 19.7 µM
- GI50 (HOP-92 NSCLC): 1.69 µM
- TGI (HOP-92 NSCLC): 18.1 µM
- GI50 (HS 578T breast): 2.44 µM
- TGI (HS 578T breast): 19.1 µM
- GI50 (HT29 colon): 2.76 µM
- TGI (HT29 colon): 8.76 µM
- GI50 (IGROV1 ovarian): 2.27 µM
- TGI (IGROV1 ovarian): 17.4 µM
- GI50 (K-562 leukemia): 0.404 µM
- TGI (K-562 leukemia): > 100 µM
- GI50 (KM12 colon): 1.4 µM
- TGI (KM12 colon): 12.6 µM
- GI50 (LOX IMVI melanoma): 1.89 µM
- TGI (LOX IMVI melanoma): 13.4 µM
- GI50 (M14 melanoma): 1.59 µM
- TGI (M14 melanoma): 10.8 µM
- GI50 (MALME-3M melanoma): 2.28 µM
- TGI (MALME-3M melanoma): 19.8 µM
- GI50 (MCF7 breast): 0.549 µM
- TGI (MCF7 breast): 21.4 µM
- GI50 (MDA-MB-231 breast): 2.73 µM
- TGI (MDA-MB-231 breast): 13.8 µM
- GI50 (MDA-MB-435): 0.312 µM
- TGI (MDA-MB-435): 0.993 µM
- GI50 (MOLT-4 leukemia): 3.37 µM
- TGI (MOLT-4 leukemia): 28.7 µM
- GI50 (NCI-H226 lung): 6.02 µM
- TGI (NCI-H226 lung): 24.3 µM
- GI50 (NCI-H23 lung): 2.34 µM
- TGI (NCI-H23 lung): 12.6 µM
- GI50 (NCI-H460 lung): 1.71 µM
- TGI (NCI-H460 lung): 12.8 µM
- GI50 (NCI-H522 lung): 0.247 µM
- TGI (NCI-H522 lung): 0.858 µM
- GI50 (NCI/ADR-RES ovarian): 0.668 µM
- TGI (NCI/ADR-RES ovarian): 4.49 µM
- GI50 (OVCAR-3 ovarian): 0.753 µM
- TGI (OVCAR-3 ovarian): 3.69 µM
- GI50 (OVCAR-4 ovarian): 3.4 µM
- TGI (OVCAR-4 ovarian): 25.9 µM
- GI50 (OVCAR-5 ovarian): 2.81 µM
- TGI (OVCAR-5 ovarian): 12.4 µM
- GI50 (OVCAR-8 ovarian): 2.87 µM
- TGI (OVCAR-8 ovarian): 11.4 µM
- GI50 (PC-3 prostate): 2.01 µM
- TGI (PC-3 prostate): 18.1 µM
- GI50 (RPMI-8226 leukemia): 3.21 µM
- TGI (RPMI-8226 leukemia): 18.5 µM
- GI50 (RXF 393 renal): 2.12 µM
- TGI (RXF 393 renal): 10.5 µM
- GI50 (SF-268 CNS): 4.28 µM
- TGI (SF-268 CNS): 21.2 µM
- GI50 (SF-295 CNS): 1.19 µM
- TGI (SF-295 CNS): 10.3 µM
- GI50 (SF-539 CNS): 1.31 µM
- TGI (SF-539 CNS): 3.54 µM
- GI50 (SK-MEL-2 melanoma): 2.17 µM
- TGI (SK-MEL-2 melanoma): 13 µM
- GI50 (SK-MEL-28 melanoma): 1.51 µM
- TGI (SK-MEL-28 melanoma): 18.8 µM
- GI50 (SK-MEL-5 melanoma): 1.44 µM
- TGI (SK-MEL-5 melanoma): 13.1 µM
- GI50 (SK-OV-3 ovarian): 3.12 µM
- TGI (SK-OV-3 ovarian): 17.5 µM
- GI50 (SN12C renal): 2.79 µM
- TGI (SN12C renal): 12.7 µM
- GI50 (SNB-19 CNS): 3.57 µM
- TGI (SNB-19 CNS): 16.7 µM
- GI50 (SNB-75 CNS): 3.08 µM
- TGI (SNB-75 CNS): 23.2 µM
- GI50 (SR leukemia): 0.413 µM
- TGI (SR leukemia): 20.6 µM
- GI50 (SW-620 colon): 1.11 µM
- TGI (SW-620 colon): 16.3 µM
- GI50 (T-47D breast): 1.77 µM
- TGI (T-47D breast): 23.1 µM
- GI50 (TK-10 renal): 12.5 µM
- TGI (TK-10 renal): 37.1 µM
- GI50 (U251 CNS): 2.96 µM
- TGI (U251 CNS): 14 µM
- GI50 (UACC-257 melanoma): 12.3 µM
- TGI (UACC-257 melanoma): 31.5 µM
- GI50 (UACC-62 melanoma): 0.515 µM
- TGI (UACC-62 melanoma): 10.2 µM
- GI50 (UO-31 renal): 1.97 µM
- TGI (UO-31 renal): 16 µM
